Measurements taken from US20160324916A1, “PROCESS FOR THE SYNCHRONIZATION OF OVULATION FOR TIMED BREEDING WITHOUT HEAT DETECTION” (priority 2003, published 2016).

Key:
postpartum sows = assay: Single timed injection 96 hours post-weaning and single timed insemination without estrus detection in postpartum sows (Example 3); format: in vivo, swine; settings: 50 mcg in SAIB 96 hours post-weaning, single timed insemination, no estrus detection
Procedure: Approximately 170 postpartum sows were randomly divided into two equal groups comprised of controls and treated. Following weaning, the controls were detected for estrus and bred following the normal standard operating procedures for the farms on which they resided. The treated sows received a 50 mcg dose of deslorelin in SAIB at 96 hours post-weaning and were bred with a single insemination 28+/−2 hours later with no regard to estrus detection. The sows were examined for pregnancy by ultrasound at 21 days and slaughtered around 28 days post breeding. The entire reproductive tract was removed and corpora lutea and embryos were counted.

mature postpartum sows = assay: Intravulvar injection at estrus detection in mature postpartum sows, AI breeding (Example 2); format: in vivo, swine; settings: 50 mcg intravulvar at estrus detection
Procedure: Sows were assigned randomly in blocks of two to either control or to be injected intravulvar with 50 mcg of deslorelin in SAIB at the time of estrus detection for sows first detected in estrus in the a.m. and 12 hours later for those first detected in estrus in the p.m. Treated animals were bred AI upon detected estrus and again 24 hours later if still in estrus. Controls received a saline injection on first detected estrus behavior estrus detection and were bred according to the farm's normal procedures.

## CCNC(=O)[C@@H]1CCCN1C(=O)[C@H](CCCN=C(N)N)NC(=O)[C@H](CC(C)C)NC(=O)[C@@H](Cc1c[nH]c2ccccc12)NC(=O)[C@H](Cc1ccc(O)cc1)NC(=O)[C@H](CO)NC(=O)[C@H](Cc1c[nH]c2ccccc12)NC(=O)[C@H](Cc1cnc[nH]1)NC(=O)[C@@H]1CCC(=O)N1 [Deslorelin, deslorelin]
Postpartum sows
  Pregnancy Rate: 71%
Mature postpartum sows
  Pregnancy rates, Control versus Treated: no significant difference
